{"source": "patent US20220040230A1", "about": "“COMPOSITIONS AND METHODS FOR IMMUNOTHERAPIES” (The Regents of the University of California, priority 2018, published 2022)", "molecules": {"B1": {"name": "rhIFN-γ: Recombinant human IFN-γ from Biolegend (protein, UniProt P01579 24-161, looked up)", "Interferon gamma": "QDPYVKEAENLKKYFNAGHSDVADNGTLFLGILKNWKEESDRKIMQSQIVSFYFKLFKNFKDDQSIQKSVETIKEDMNVKFFNSNKKKRDDFEKLTNYSVTDLNVQRKAIHELIQVMAELSPAAKTGKRKRSQMLFRG"}}, "key": {"[1]": {"system": "OSCSCs", "experiment": "Chemotherapy-mediated cell death of OSCSCs", "type": "cell-based, human"}, "[2]": {"system": "OSCCs", "experiment": "Chemotherapy-mediated cell death of OSCCs", "type": "cell-based, human"}, "[3]": {"system": "PL12", "experiment": "Propidium iodide cell death assay, PL12"}, "[4]": {"system": "MP2", "experiment": "Propidium iodide cell death assay, MP2", "type": "cell-based, human", "conditions": "NAC (20 nM) 24 hours before paclitaxel", "experimental": "(§1) P-values of <0.05 were obtained for differences between MP2 vs. PL12 and Capan at the concentrations of 10 nM, 200 nM, 600 nM, 1000 nM and […] of Paclitaxel (n=2 per each experimental condition) (FIG. 25A)."}, "[5]": {"system": "NK-supernatant differentiated MP2 tumors", "experiment": "Propidium iodide cell death assay, NK-supernatant differentiated MP2", "type": "cell-based, human", "experimental": "as §1\nDifferentiation of MP2 tumors was conducted as described previously. NK cells were treated with a combination of anti-CD16mAb (3 μg/mL) and IL-2 (1,000 U/mL) for 18 hours before supernatants were removed and used for differentiation experiments. The amounts of IFN-γ produced by activated NK cells were assess with IFN-γ ELISA (Biolegend, CA, USA). MP2 cells were differentiated with gradual daily addition of increasing amounts of NK cell supernatants (of corresponding treatments). On average, to induce differentiation, a total of 3,500 pg of IFN-γ containing supernatants were added for 4 days to induce differentiation and resistance of MP2 tumor cells to NK cell-mediated cytotoxicity. Afterwards, target cells were washed with 1×PBS, detached and used for experiments."}, "[6]": {"system": "Capan", "experiment": "Propidium iodide cell death assay, Capan"}, "[7]": {"system": "MP2", "experiment": "Surface expression on MP2 by flow cytometry", "type": "cell-based, human", "conditions": "24 h", "experimental": "MP2 cells were left untreated or treated with rhTNF-α (20 ng/mL), rhIFN-γ (200 U/mL) or the combination of rhTNF-α (20 ng/mL) and rhIFN-γ (200 U/mL) for 24 h. Afterwards, the cells were detached and the surface expression of CD44, CD54, MHC-class I and B7H1 were assessed using PE conjugated antibodies followed by flow cytometric analysis. Isotype controls were used as controls (FIG. 14A). MP2 and Capan cells were treated as described in FIG. 14A, and were detached from the tissue culture plates, labeled with ^51Cr and used in a standard 4-hour ^51Cr release assay using IL-2 (1000 U/mL) treated NK cells. Pre-treatment of NK cells with IL-2 (1000 U/ml) were carried out for 18-24 hours. Percent cytotoxicity was determined at different effector to target ratio and the lytic units 30/10^6 cells were determined using inverse number of NK cells required to lyse 30% of the tumor cells×100 (FIG. 14B).\nStaining was performed by labeling the cells with antibodies as described previously. Briefly, the cells were washed twice with ice-cold PBS/1% BSA. Predetermined optimal concentrations of specific human flow cytometric antibodies were added to 1×10^4 cells in 50 μl of cold-PBS/1% BSA and cells were incubated on ice for 30 min. […] Flow cytometry analysis was performed using Beckman Coulter Epics XL cytometer (Brea, Calif.) and results were analyzed in FlowJo vX software (Ashland, Oreg.)."}, "[8]": {"system": "MP2", "experiment": "4-hour 51Cr release cytotoxicity / ADCC assay against MP2", "type": "cell-based, human", "conditions": "IL-2 treated NK cells; tumor cells treated 24 h", "experimental": "The target cells (5×10^5) were labeled with 50 μCi ^51Cr (Perkin Elmer, Santa Clara, Calif.) and chromated for 1 hour. Following incubation, target cells were washed once to remove excess unbound ^51Cr. […] Following incubation, target cells were washed again to remove excess unbound antibody and ^51Cr. Labeled target cells were culture with effector cells and the cytotoxicity against target cells were assessed using ^51Cr release cytotoxicity assay.\n^51Cr Release Cytotoxicity Assay ^51Cr was purchased from Perkin Elmer (Santa Clara, Calif.). Standard ^51Cr release cytotoxicity assays were used to determine NK cell cytotoxic function in the experimental cultures. […] After a 4-hour incubation period, the supernatants were harvested from each sample and counted for released radioactivity using the gamma counter. Total (containing ^51Cr labeled target cells) and spontaneous (supernatants of target cells alone) release values were measured and used to calculate the percentage specific cytotoxicity. The percentage specific cytotoxicity was calculated using the following formula: […]\nLu30/10^6 is calculated by using the inverse of the number of effector cells needed to lyse 30% of target cells×100.\nThe ^51Cr release assay was performed as described previously. […] The percentage specific cytotoxicity was calculated using the following formula: […]"}, "[9]": {"conditions": "NAC (20 nM) 24 hours before paclitaxel"}}}
{"molecule": "N.N.[Cl][Pt][Cl]", "note": "[CDDP, cis-dichlorodiammineplatinum]", "values": [{"measurement": "cell death of stem-like/poorly differentiated OSCSCs", "setting": "[1]", "result": "minimal effects"}, {"measurement": "cell death of patient-derived differentiated OSCCs", "setting": "[2]", "result": "higher cell death"}]}
{"molecule": "CC(=O)N[C@@H](CS)C(=O)O", "note": "[NAC, N-Acetyl Cysteine]", "values": [{"measurement": "effect of NAC on paclitaxel mediated cell death of PL12", "setting": "[3]; [9]", "result": "increased paclitaxel mediated cell death"}, {"measurement": "effect of NAC on paclitaxel mediated cell death of MP2", "setting": "[4]", "result": "increased paclitaxel mediated cell death"}, {"measurement": "effect of NAC on cell death of NK-supernatant differentiated MP2", "setting": "[5]; [9]", "result": "increased cell death"}, {"measurement": "effect of NAC on paclitaxel mediated cell death of Capan", "setting": "[6]; [9]", "result": "increased paclitaxel mediated cell death"}]}
{"molecule": "CC(=O)O[C@H]1C(=O)[C@@]2(C)[C@H]([C@H](OC(=O)c3ccccc3)[C@]3(O)C[C@H](OC(=O)[C@H](O)[C@@H](NC(=O)c4ccccc4)c4ccccc4)C(C)=C1C3(C)C)[C@]1(OC(C)=O)CO[C@@H]1C[C@@H]2O", "note": "[paclitaxel]", "values": [{"measurement": "cell death of stem-like/poorly differentiated OSCSCs", "setting": "[1]", "result": "minimal effects"}, {"measurement": "paclitaxel mediated cell death of PL12", "setting": "[3]; compared with MP2", "result": "higher levels of cell death"}, {"measurement": "paclitaxel mediated cell death of NK-supernatant differentiated MP2", "setting": "[5]", "result": "susceptibility to paclitaxel"}, {"measurement": "paclitaxel mediated cell death of Capan", "setting": "[6]; compared with MP2", "result": "higher levels of cell death"}, {"measurement": "cell death of patient-derived differentiated OSCCs", "setting": "[2]", "result": "higher cell death"}]}
{"molecule": "rhIFN-γ: Recombinant human IFN-γ from Biolegend", "values": [{"measurement": "surface expression of B7H1 on MP2", "setting": "[7]", "result": "upregulate B7H1"}, {"measurement": "surface expression of CD54, MHC-class I, B7H1 and CD44 on MP2", "setting": "[7]; rhTNF-α 20 ng/mL, rhIFN-γ 200 U/mL", "result": "increase surface expression of CD54 and MHC-class I"}]}
{"molecule": "B1", "values": [{"measurement": "resistance of MP2 against NK cell mediated cytotoxicity", "setting": "[8]", "result": "significant resistance"}]}
